Data published in PMC11053447, “Human ABC and SLC Transporters: The Culprit Responsible for Unspecific PSMA-617 Uptake?” (Pharmaceuticals, 2024).
Where two headings read alike, the source gives them in different places.

Legend:
human MATE2-K = human MATE2-K (Homo sapiens, UniProt Q86VL8); test: SLC transporter substrate assay, MDCKII-MATE2K-Fin vs control MDCKII-CAT-Fin cells
Description: The described cells were plated onto standard 24-well tissue culture plates at densities of 5 × 10^5 cells/well. […] Before starting the experiment, the cells were prepared by removing the medium and washing the cells twice with 300 µL of assay buffer. […] The cells were lysed by adding 300 µL of 0.1N NaOH, they were incubated for 10 min at 37 °C and 100 µL samples were taken from all the wells.
The amount of protein in each well was quantified using the BCA kit for protein determination (Sigma-Aldrich, St Louis, MO, USA). Positive controls were performed using a separate 96-well plate format according to Table S8 in SI4.
SI4. Results of transporter substrate assays (SLC)
Table S8: Parameters of positive controls, control cell lines and plating for SLC transporters assays.
KH: Krebs-Henseleit buffer, HBSS: Hank's balanced salt solution, MES: 2 -(N-morpholino) ethanesulfonic acid, cGMP:
Guanosine cyclic phosphate, E3S: Estrone -3-sulfate, Gly-Sar: Glycylsarcosine, MPP+: 1-methyl-4-phenylpyridinium.
Calculation of fold accumulation values for SLC transporter substrate assays The fold accumulation value was defined as the ratio of uptake of the test substance (TS) or probe substrate into transfected and control cells. If the fold accumulation is > 2 and can be inhibited by a known inhibitor of the transporter, the test substance can be considered as a substrate of the respective transporter.
Fold accumulation = UPTTRP
• UPTTRP: accumulated amount of test substance (TS) or probe substrate in transfected cells normalized by protein content […]
• UPTCTRL: accumulated amount of test substance (TS) or probe substrate in control cells normalized by protein content […]
4.2 Multidrug and toxin extrusion protein MATE2-K
(MDCKII-MATE2K-Fin) and control cells (MDCKII-CAT-Fin) applying 2- and 20-minute incubation periods, measured in SLC transporter substrate assay. […] Concentrations are nominal. […]
and control cells (MDCKII-CAT-Fin) applying 2- and 20-minute incubation periods, measured in SLC transporter […]
Compound Nominal In MATE2-K Fold

human BCRP = biological target: T1, human BCRP (Homo sapiens, UniProt Q9UNQ0); conditions: E3S probe; for ATP dependent transport / Relative ATP dependent transport: mean (n=3) ± SD
T1 sequence (Q9UNQ0 1-655): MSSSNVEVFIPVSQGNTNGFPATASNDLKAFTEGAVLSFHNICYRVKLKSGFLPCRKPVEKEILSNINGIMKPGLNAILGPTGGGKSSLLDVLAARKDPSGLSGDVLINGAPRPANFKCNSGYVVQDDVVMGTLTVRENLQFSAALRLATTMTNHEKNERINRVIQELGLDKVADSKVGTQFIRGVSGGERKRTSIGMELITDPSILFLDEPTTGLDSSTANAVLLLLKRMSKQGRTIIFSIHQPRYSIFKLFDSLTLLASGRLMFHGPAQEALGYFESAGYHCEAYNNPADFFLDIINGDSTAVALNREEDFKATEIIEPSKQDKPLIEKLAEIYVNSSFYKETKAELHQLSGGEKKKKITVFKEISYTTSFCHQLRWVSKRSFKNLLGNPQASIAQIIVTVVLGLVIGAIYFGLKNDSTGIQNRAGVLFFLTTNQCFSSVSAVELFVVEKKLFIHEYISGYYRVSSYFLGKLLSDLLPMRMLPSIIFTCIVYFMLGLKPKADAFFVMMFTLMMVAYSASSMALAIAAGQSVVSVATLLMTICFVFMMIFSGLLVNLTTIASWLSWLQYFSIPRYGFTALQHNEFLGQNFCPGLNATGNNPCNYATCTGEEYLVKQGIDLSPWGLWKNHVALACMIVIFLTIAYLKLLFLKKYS
Description: (§1) The incubations were carried out in the presence of 4 mM ATP or AMP to distinguish between transporter-mediated uptake and passive diffusion into the vesicles. […] Afterwards, the reaction mixtures were pre-incubated for 15 min at 37 °C for MRP1 or at 32 °C for BCRP, MDR1 and MRP4, respectively. The transporter assay was initiated through the addition of 25 μL of pre-warmed 12 mM MgATP (or 12 mM AMP in assay buffer as a background control). The reactions were quenched through the addition of 200 μL of ice-cold washing buffer and immediate filtration via glass fiber filters mounted onto a 96-well plate (filter plate). The filters were washed (5 × 200 μL of ice-cold washing buffer) and dried, and the amount of probe substrate inside the filtered vesicles was determined using LSC. The experiments were conducted in triplicate.
(§2) Calculation of ATP-dependent transport and inhibition for vesicular transport inhibition
(§3) For all wells the amount of the translocated probe substrate was determined in counts per minute (cpm).
(§4) ATP-dependent transport (pmol/mg protein/min) is calculated for each concentration using the following
𝐴𝑐𝑐𝐴𝑇𝑃 ∙ 𝑉 ∙ 𝐶𝐶 𝐴𝑐𝑐𝐴𝑀𝑃 ∙𝑉 ∙𝐶𝐶
(§5) 𝐴𝑇𝑃 − 𝑑𝑒𝑝𝑒𝑛𝑑𝑒𝑛𝑡 𝑎𝑐𝑐𝑢𝑚𝑢𝑙𝑎𝑡𝑖𝑜𝑛 = ( 𝑇𝐶𝑃𝑀 𝑠𝑢𝑏) − ( 𝑇𝐶𝑃𝑀 𝑠𝑢𝑏)
(§6) • AccATP: probe substrate accumulation with ATP (cpm)
(§7) • AccAMP: probe substrate accumulation with AMP (cpm)
(§8) • Tcpm: cpm in dosing solution V: volume per well (µL)
(§9) • CCsub: probe substrate concentration (µM)
• Prot: total protein per well (mg)
• t: incubation time (min)
(§10) Relative ATP-dependent transport (%) values were calculated using the following equation:
(§11) 𝑅𝑒𝑙𝑎𝑡𝑖𝑣𝑒 𝐴𝑇𝑃 − 𝑑𝑒𝑝𝑒𝑛𝑑𝑒𝑛𝑡 𝑡𝑟𝑎𝑛𝑠𝑝𝑜𝑟𝑡 (%) = 𝐴 − 𝐵 ∙ 100
(§12) • A: amount of translocated substrate in the presence of test substance (TS) and ATP
(§13) • B: amount of translocated substrate in the presence of test substance (TS) and AMP
(§14) • C: amount of translocated substrate in the presence of solvent and ATP
(§15) • D: amount of translocated substrate in the presence of solvent and AMP
(§16) Relative inhibition (%) is calculated by setting probe substrate transport in the absence of test substance as
(§17) 𝑅𝑒𝑙𝑎𝑡𝑖𝑣𝑒 𝑖𝑛ℎ𝑖𝑏𝑖𝑡𝑖𝑜𝑛 (%) = 𝐴𝑐𝑐𝑆𝑝𝑒𝑐𝑖𝑓𝑖𝑐,𝑥 ∙100
(§18) • Accspecific,x: transporter specific accumulation for a given sample (pmol/mg/min)
(§19) • Accspecific,vehicle: transporter specific accumulation for a solvent control (pmol/mg/min)
Data are expressed as m ean
measured in the vesicular transport inhibition assay.
Nominal ATP Relative ATP Relative
Compound concentration [µM] dependent transport dependent transport inhibition [%]
[pmol/mg/min] [% of control]
Data are expressed as mean (n=3) ± SD.

MRP1 = MRP1 (Homo sapiens, UniProt P33527); conditions: for Relative inhibition / ATP dependent transport / Relative ATP dependent transport: E217βG probe; for ATP dependent transport / Relative ATP dependent transport: mean (n=3) ± SD
MRP1, sequence (P33527 whole entry): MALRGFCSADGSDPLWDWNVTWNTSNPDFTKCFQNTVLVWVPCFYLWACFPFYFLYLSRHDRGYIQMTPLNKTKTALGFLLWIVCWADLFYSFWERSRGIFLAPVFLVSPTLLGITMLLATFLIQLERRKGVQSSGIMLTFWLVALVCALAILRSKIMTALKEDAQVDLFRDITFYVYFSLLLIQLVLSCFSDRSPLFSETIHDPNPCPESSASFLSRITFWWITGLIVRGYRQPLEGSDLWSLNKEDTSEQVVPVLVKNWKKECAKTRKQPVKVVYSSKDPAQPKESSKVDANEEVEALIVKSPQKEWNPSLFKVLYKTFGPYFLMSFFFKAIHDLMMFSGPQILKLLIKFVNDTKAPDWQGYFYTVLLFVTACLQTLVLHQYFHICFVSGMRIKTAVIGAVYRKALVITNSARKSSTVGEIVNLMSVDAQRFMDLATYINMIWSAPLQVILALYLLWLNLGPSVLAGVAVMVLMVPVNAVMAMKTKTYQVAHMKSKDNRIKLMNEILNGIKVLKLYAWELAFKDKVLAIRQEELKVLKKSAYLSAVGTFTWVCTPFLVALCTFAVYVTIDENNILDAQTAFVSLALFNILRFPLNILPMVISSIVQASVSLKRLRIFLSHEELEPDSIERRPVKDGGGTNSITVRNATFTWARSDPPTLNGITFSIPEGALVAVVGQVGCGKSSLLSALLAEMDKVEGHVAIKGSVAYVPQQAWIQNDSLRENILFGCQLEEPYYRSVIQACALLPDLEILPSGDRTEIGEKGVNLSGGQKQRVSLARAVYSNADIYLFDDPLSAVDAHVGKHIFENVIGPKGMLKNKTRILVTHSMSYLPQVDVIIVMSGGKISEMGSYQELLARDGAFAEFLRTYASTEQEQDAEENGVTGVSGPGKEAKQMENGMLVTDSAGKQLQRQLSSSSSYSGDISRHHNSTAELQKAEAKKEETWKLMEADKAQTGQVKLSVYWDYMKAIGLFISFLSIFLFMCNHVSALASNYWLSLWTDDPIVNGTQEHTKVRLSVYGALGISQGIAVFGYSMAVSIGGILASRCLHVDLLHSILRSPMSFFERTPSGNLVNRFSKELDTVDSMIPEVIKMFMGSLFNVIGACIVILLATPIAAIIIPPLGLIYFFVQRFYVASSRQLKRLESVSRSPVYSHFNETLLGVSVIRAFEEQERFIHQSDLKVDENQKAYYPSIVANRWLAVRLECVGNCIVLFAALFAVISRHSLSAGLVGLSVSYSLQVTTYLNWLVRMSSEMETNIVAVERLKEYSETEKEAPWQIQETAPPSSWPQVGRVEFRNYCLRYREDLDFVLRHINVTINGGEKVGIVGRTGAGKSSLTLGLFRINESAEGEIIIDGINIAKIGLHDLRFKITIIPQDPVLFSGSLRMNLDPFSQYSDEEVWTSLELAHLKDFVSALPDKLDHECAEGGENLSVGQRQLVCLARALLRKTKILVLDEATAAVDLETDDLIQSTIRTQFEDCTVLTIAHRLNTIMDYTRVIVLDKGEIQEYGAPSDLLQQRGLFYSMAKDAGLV
Description: as §1, §2, §3, §4
𝐴𝑐𝑐𝐴𝑇𝑃 ∙ 𝑉 ∙ 𝐶𝐶 𝐴𝑐𝑐𝐴𝑀𝑃 ∙𝑉 ∙𝐶𝐶
as §5, §6, §7, §8, §9
• Prot: total protein per well (mg)
• t: incubation time (min)
as §10, §11, §12, §13, §14, §15, §16, §17, §18, §19

human MATE2-K, sequence (Q86VL8 1-566 isoform Q86VL8-3): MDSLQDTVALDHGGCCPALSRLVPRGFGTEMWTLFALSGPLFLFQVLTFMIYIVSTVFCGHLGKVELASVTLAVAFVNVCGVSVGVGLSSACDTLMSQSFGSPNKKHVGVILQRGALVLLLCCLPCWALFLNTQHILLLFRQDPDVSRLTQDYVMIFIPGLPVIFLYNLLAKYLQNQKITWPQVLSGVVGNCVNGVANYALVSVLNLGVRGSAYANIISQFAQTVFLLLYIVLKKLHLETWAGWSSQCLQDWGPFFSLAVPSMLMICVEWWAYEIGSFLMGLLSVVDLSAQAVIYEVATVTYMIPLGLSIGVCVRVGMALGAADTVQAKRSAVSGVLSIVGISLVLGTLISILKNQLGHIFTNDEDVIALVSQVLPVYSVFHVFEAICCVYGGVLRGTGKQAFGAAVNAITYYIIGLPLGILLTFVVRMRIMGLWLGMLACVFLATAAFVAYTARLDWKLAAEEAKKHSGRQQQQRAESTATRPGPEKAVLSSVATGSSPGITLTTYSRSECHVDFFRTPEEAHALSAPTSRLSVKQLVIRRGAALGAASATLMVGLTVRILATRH

[3H]C(c1ccc2ccccc2c1)C([3H])(NC(=O)C1CCC(CNC(=O)CN2CCN(CC(=O)[O-])CCN(CC(=O)[O-])CCN(CC(=O)[O-])CC2)CC1)C(=O)NCCCCC(NC(=O)NC(CCC(=O)O)C(=O)O)C(=O)O.[Lu+3] (stereo not drawn) [([α,β-^3H]Nal)Lu-PSMA-617]
Accumulation in MATE2-K transporter expressing cells (human MATE2-K; 0.03 µM nominal, 2 min): 0.06 ± 0.01 pmol/mg protein | Accumulation in control cells (human MATE2-K; 0.03 µM nominal, 2 min): 0.11 ± 0.01 pmol/mg protein | Accumulation, active transport (human MATE2-K; 0.03 µM nominal, 2 min): -0.05 ± 0.02 pmol/mg protein | Fold accumulation (human MATE2-K; 0.03 µM nominal, 2 min): 0.54 | Accumulation in MATE2-K transporter expressing cells (human MATE2-K; 0.03 µM nominal, 20 min): 0.10 ± 0.01 pmol/mg protein | Accumulation in control cells (human MATE2-K; 0.03 µM nominal, 20 min): 0.16 ± 0.01 pmol/mg protein | Accumulation, active transport (human MATE2-K; 0.03 µM nominal, 20 min): -0.07 ± 0.01 pmol/mg protein | Fold accumulation (human MATE2-K; 0.03 µM nominal, 20 min): 0.59 | Accumulation in MATE2-K transporter expressing cells (human MATE2-K; 0.30 µM nominal, 2 min): 0.64 ± 0.14 pmol/mg protein | Accumulation in control cells (human MATE2-K; 0.30 µM nominal, 2 min): 0.59 ± 0.04 pmol/mg protein | Accumulation, active transport (human MATE2-K; 0.30 µM nominal, 2 min): 0.05 ± 0.15 pmol/mg protein | Fold accumulation (human MATE2-K; 0.30 µM nominal, 2 min): 1.08 | Accumulation in MATE2-K transporter expressing cells (human MATE2-K; 0.30 µM nominal, 20 min): 0.91 ± 0.13 pmol/mg protein | Accumulation in control cells (human MATE2-K; 0.30 µM nominal, 20 min): 0.97 ± 0.07 pmol/mg protein | Accumulation, active transport (human MATE2-K; 0.30 µM nominal, 20 min): -0.06 ± 0.15 pmol/mg protein | Fold accumulation (human MATE2-K; 0.30 µM nominal, 20 min): 0.94 | Substrate assessment (MATE2-K) (human MATE2-K; 0.03, 0.30 µM, 2, 20 min): no in vitro substrate | Max. transporter-specific fold accumulation, without inhibitor (human MATE2-K; 2 min, 0.3 µM): 1.08 | Relative inhibition (human BCRP; test substance 0.30 µM nominal): 1% | ATP dependent transport (human BCRP; test substance 0.30 µM nominal): 23285.00 ± 769.03 pmol/mg/min | Relative ATP dependent transport (human BCRP; test substance 0.30 µM nominal): 98.5 ± 3.67 % of control | Relative inhibition (human BCRP; test substance 3.00 µM nominal): 0% | ATP dependent transport (human BCRP; test substance 3.00 µM nominal): 23687.00 ± 869.33 pmol/mg/min | Relative ATP dependent transport (human BCRP; test substance 3.00 µM nominal): 100.22 ± 4.06 % of control | Inhibitor assessment (MRP1) (MRP1; 0.30 and 3.00 µM, inhibition >20% defined as significant): no inhibitor | Relative inhibition (MRP1; test substance 0.30 µM nominal): 9% | ATP dependent transport (MRP1; test substance 0.30 µM nominal): 734.00 ± 31.29 pmol/mg/min | Relative ATP dependent transport (MRP1; test substance 0.30 µM nominal): 91.45 ± 7.39 % of control | Relative inhibition (MRP1; test substance 3.00 µM nominal): 9% | ATP dependent transport (MRP1; test substance 3.00 µM nominal): 730.00 ± 37.02 pmol/mg/min | Relative ATP dependent transport (MRP1; test substance 3.00 µM nominal): 90.95 ± 7.76 % of control
